Results on 29 compounds are retold here after patent US20240270741A1 (Cogent Biosciences, Inc., priority 2023, published 2024).

By IC50 is commonly meant the concentration needed to halve the response being measured. A lower IC50 goes with greater potency.

In the first assay the target is FGFR2 (Homo sapiens, UniProt P21802). Briefly: FGFR wild type enzyme assay (HTRF KinEASE-TK), FGFR2. The note with it: Enz FGFR2 (nM). (In TR-FRET formats the signal depends on donor and acceptor labels being close together.)
Chain of FGFR2 (P21802 399-821 limits assumed): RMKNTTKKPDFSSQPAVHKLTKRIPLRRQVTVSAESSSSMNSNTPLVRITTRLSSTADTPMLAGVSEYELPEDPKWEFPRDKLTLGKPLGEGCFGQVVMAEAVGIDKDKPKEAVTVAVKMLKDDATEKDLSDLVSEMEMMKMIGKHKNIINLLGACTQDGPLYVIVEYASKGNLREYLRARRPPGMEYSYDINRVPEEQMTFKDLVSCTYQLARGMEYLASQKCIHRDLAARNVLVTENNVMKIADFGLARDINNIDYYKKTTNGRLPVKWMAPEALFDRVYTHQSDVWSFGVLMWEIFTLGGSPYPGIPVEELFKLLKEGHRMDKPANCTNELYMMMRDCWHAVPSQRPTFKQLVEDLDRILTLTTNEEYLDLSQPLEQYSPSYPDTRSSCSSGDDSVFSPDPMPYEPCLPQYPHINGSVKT
The compound `Cc1c(-c2cc(Sc3c(F)cccc3C#N)c3c(C#N)cnn3c2)cnn1C1CCN(C)CC1` [Example 119] gave an IC50 of 1 nM.
`N#Cc1cnn2cc(-c3cnn([C@H]4CCN(CCO)C4)c3)cc(Sc3ccccn3)c12` [Example 97, (S)-6-(1-(1-(2-hydroxyethyl)pyrrolidin-3-yl)-1H-pyrazol-4-yl)-4-(pyridin-2-ylthio)pyrazolo[1,5-a]pyridine-3-carbonitrile]: the midpoint of inhibition, the IC50, lay at 4 nM.

Still in this assay, the particulars now being: Enz FGFR2 (nM), FGFR2 wild type enzyme.
The compound `Cc1c(-c2cc(Sc3ncccc3F)c3c(C#N)cnn3c2)cnn1C[C@H]1CC[C@@H](O)CC1` [Example 212, 4-((3-fluoropyridin-2-yl)thio)-6-(1-(((1s,4s)-4-hydroxycyclohexyl)methyl)-5-methyl-1H-pyrazol-4-yl)pyrazolo[1,5-a]pyridine-3-carbonitrile] showed a 50% inhibitory concentration (IC50) of 3 nM.
For `Cc1c(-c2cc(Sc3ncccc3F)c3c(C#N)cnn3c2)cnn1[C@H]1CC[C@H](N)CC1` [Example 187, 6-(1-((1r,4r)-4-aminocyclohexyl)-5-methyl-1H-pyrazol-4-yl)-4-((3-fluoropyridin-2-yl)thio)pyrazolo[1,5-a]pyridine-3-carbonitrile], half-maximal inhibition (IC50) required 1 nM.
On the same count and under the same terms, with `Cc1c(-c2cc(Sc3ncccc3F)c3c(C#N)cnn3c2)cnn1[C@H]1CC[C@@H](N(C)CCO)CC1` [Example 241, 4-((3-fluoropyridin-2-yl)thio)-6-(1-((1s,4s)-4-((2-hydroxyethyl)(methyl)ami-no)cyclohexyl)-5-methyl-1H-pyrazol-4-yl)pyrazolo[1,5-a]pyridine-3-carbonitrile] the figure was 1 nM; with `CC(=O)N1CCC[C@H](Cn2ncc(-c3cc(Sc4ccccc4C#N)c4c(C#N)cnn4c3)c2C)C1` [Example 202, (S)-6-(1-((1-acetylpiperidin-3-yl)methyl)-5-methyl-1H-pyrazol-4-yl)-4-((2-cyanophenyl)thio)pyrazolo [1,5-a]pyridine-3-carbonitrile], 2 nM; with `CN[C@H]1C[C@@H](n2ncc(-c3cc(Sc4ncccc4F)c4c(C#N)cnn4c3)c2C)C1` [Example 208, 4-((3-fluoropyridin-2-yl)thio)-6-(5-methyl-1-((1s,3s)-3-(methylamino)cyclobutyl)-1H-pyrazol-4-yl)pyrazolo[1,5-a]pyridine-3-carbonitrile], 1 nM.
Compound `Cc1c(-c2cc(Sc3c(F)cccc3C#N)c3c(C#N)cnn3c2)cnn1C1CCNCC1` [Example 137, 4-((2-cyano-6-fluorophenyl)thio)-6-(5-methyl-1-(piperidin-4-yl)-1H-pyrazol-4-yl)pyrazolo[1,5-a]pyridine-3-carbonitrile] came in with an IC50 of 1 nM.
With `Cc1c(-c2cc(Sc3ccccc3C#N)c3c(C#N)cnn3c2)cnn1[C@H]1CC[C@](C)(O)CC1` [Example 261, 4-((2-cyanophenyl)thio)-6-(1-((1r,4r)-4-hydroxy-4-methylcyclohexyl)-5-methyl-1H-pyrazol-4-yl)pyrazolo[1,5-a]pyridine-3-carbonitrile], the 50% inhibitory concentration (IC50) stood at 0.5 nM.
For `Cc1c(-c2cc(Sc3ncccc3F)c3c(C#N)cnn3c2)cnn1[C@H]1CC[C@@H](NC(C)C)CC1` [Example 243, 4-((3-fluoropyridin-2-yl)thio)-6-(1-((1s,4s)-4-(isopropylamino)cyclohex-yl)-5-methyl-1H-pyrazol-4-yl)pyrazolo[1,5-a]pyridine-3-carbonitrile], half-maximal inhibition (IC50) was put at 1 nM.
As for `N#Cc1ccccc1Sc1cc(-c2cnn(CC(F)(F)F)c2)cn2ncc(C#N)c12` [Example 258], the concentration for half-maximal inhibition (IC50) came to 2 nM.
`Cc1c(-c2cc(Sc3ccccc3C#N)c3c(C#N)cnn3c2)cnn1[C@@H]1C[C@H]2CC[C@@H](C1)N2C` [Example 265, 4-((2-cyanophenyl)thio)-6-(5-methyl-1-((1R,3s,5S)-8-methyl-8-azabicyclo[3.2.1]octan-3-yl)-1H-pyrazol-4-yl)pyrazolo[1,5-a]pyridine-3-carbonitrile] returned an IC50 of 0.4 nM.
Regarding `Cc1c(-c2cc(Sc3ccccc3C#N)c3c(C#N)cnn3c2)cnn1[C@H]1CC[C@@H](NCc2ccccn2)CC1` [Example 287, 4-((2-cyanophenyl)thio)-6-(5-methyl-1-((1s,4s)-4-((pyridin-2-ylmethyl)amino)cyclohex-yl)-1H-pyrazol-4-yl)pyrazolo[1,5-a]pyridine-3-carbonitrile], the concentration for half-maximal inhibition (IC50) came out at 0.4 nM.
On the same count and under the same terms, with `CC(=O)N1CCO[C@H](Cn2ncc(-c3cc(Sc4ncccc4F)c4c(C#N)cnn4c3)c2C)C1` [Example 234, (S)-6-(1-((4-acetylmorpholin-2-yl)methyl)-5-methyl-1H-pyrazol-4-yl)-4-((3-fluoropyridin-2-yl)thio)pyrazolo[1,5-a]pyridine-3-carbonitrile] the figure was 5 nM.
In turn, `Cc1c(-c2cc(Sc3ncccc3F)c3c(C#N)cnn3c2)cnn1[C@@H](C)CN(C)C` [Example 179, (S)-6-(1-(1-(dimethylamino)propan-2-yl)-5-methyl-1H-pyrazol-4-yl)-4-((3-fluoropyridin-2-yl)thio)pyrazolo[1,5-a]pyridine-3-carbonitrile] had an IC50 of 3 nM.
Same read-out and setting: the figure for `CC(=O)N1C[C@@H]2[C@H](C1)[C@H]2Cn1ncc(-c2cc(Sc3ncccc3F)c3c(C#N)cnn3c2)c1C` [Example 237, 6-(1-(((1R,5S,6r)-3-acetyl-3-azabicyclo[3.1.0]hexan-6-yl)methyl)-5-methyl-1H-pyrazol-4-yl)-4-((3-fluoropyridin-2-yl)thio)pyrazolo[1,5-a]pyridine-3-carbonitrile] is 3 nM.

The same assay, now with this note: Enz FGFR2 (nM), FGFR2 wild type enzyme assay.
On to `Cc1c(-c2cc(Sc3ccccc3C#N)c3c(C#N)cnn3c2)cnn1C1CCN(C(=O)N(C)C)CC1` [Example 406, 4-(4-(3-cyano-4-((2-cyanophenyl)thio)pyrazolo [1,5-a]pyridin-6-yl)-5-methyl-1H-pyrazol-1-yl)-N,N-dimethylpiperidine-1-carboxamide], for which the 50% inhibitory concentration (IC50) stood at 1 nM.
With `CC(=O)N1[C@@H]2CC[C@H]1C[C@H](n1ncc(-c3cc(Sc4ccc(F)cc4C#N)c4c(C#N)cnn4c3)c1C)C2` [Example 373, 6-(1-((1R,3s,5S)-8-acetyl-8-azabicyclo[3.2.1]octan-3-yl)-5-methyl-1H-pyrazol-4-yl)-4-((2-cyano-4-fluorophenyl)thio)pyrazolo [1,5-a]pyridine-3-carbonitrile], half-maximal inhibition (IC50) was put at 2 nM.
On the same count and under the same terms, with `Cc1c(-c2cc(Sc3ccc(F)cc3C#N)c3c(C#N)cnn3c2)cnn1CC[C@@H](O)CO` [Example 676, (R)-4-((2-cyano-4-fluorophenyl)thio)-6-(1-(3,4-dihydroxybutyl)-5-methyl-1H-pyrazol-4-yl)pyrazolo[1,5-a]pyridine-3-carbonitrile] the figure was 3 nM; with `CN[C@]1(C)CC[C@@H](n2ncc(-c3cc(Sc4ccc(F)cc4C#N)c4c(C#N)cnn4c3)c2C)CC1` [Example 352, 4-((2-cyano-4-fluorophenyl)thio)-6-(5-methyl-1-((1r,4r)-4-methyl-4-(methylamino)cyclohexyl)-1H-pyrazol-4-y)pyrazolo[1,5-a]pyridine-3-carbonitrile], 0.6 nM.
`Cc1c(-c2cc(Sc3ccc(F)cc3C#N)c3c(C#N)cnn3c2)cnn1C1CCN(C(=O)[C@H](C)O)CC1` [Example 360, (S)-4-((2-cyano-4-fluorophenyl)thio)-6-(1-(1-(2-hydroxypropanoyl)piperidin-4-yl)-5-methyl-1H-pyrazol-4-yl)pyrazolo[1,5-a]pyridine-3-carbonitrile] registered an IC50 of 2 nM.
In turn, `CC(=O)N1CC[C@H](n2cc(-c3cc(Sc4ncccc4F)c4c(C#N)cnn4c3)cn2)C1` [Example 450, (S)-6-(1-(1-acetylpyrrolidin-3-yl)-1H-pyrazol-4-yl)-4-((3-fluoropyridin-2-yl)thio)pyrazolo[1,5-a]pyridine-3-carbonitrile] returned a half-inhibitory concentration (IC50) of 1 nM.
The same measure, in the same setting: with `N#Cc1cnn2cc(-c3cnn([C@H]4CCN(C(=O)CO)C4)c3)cc(Sc3ncccc3F)c12` [Example 451, (S)-4-((3-fluoropyridin-2-yl)thio)-6-(1-(1-(2-hydroxyacetyl)pyrrolidin-3-yl)-1H-pyrazol-4-yl)pyrazolo[1,5-a]pyridine-3-carbonitrile] the figure was 1 nM; with `Cc1c(-c2cc(Sc3cc(Cl)ccc3C#N)c3c(C#N)cnn3c2)cnn1C1CCN(C)CC1` [Example 358, 4-((5-chloro-2-cyanophenyl)thio)-6-(5-methyl-1-(1-methylpiperidin-4-yl)-1H-pyrazol-4-yl)pyrazolo[1,5-a]pyridine-3-carbonitrile], 2 nM; with `N#Cc1cnn2cc(-c3cnn(CCCO)c3)cc(Sc3ncccc3F)c12` [Example 521, 4-((3-fluoropyridin-2-yl)thio)-6-(1-(3-hydroxypropyl)-1H-pyrazol-4-yl)pyrazolo[1,5-a]pyridine-3-carbonitrile], 2 nM.
Compound `N#Cc1cc(F)ccc1Sc1cc(-c2ccc(N3CCC(O)CC3)nc2)cn2ncc(C#N)c12` [Example 586, 4-((2-cyano-4-fluorophenyl)thio)-6-(6-(4-hydroxypiperidin-1-yl)pyridin-3-yl)pyrazolo[1,5-a]pyridine-3-carbonitrile] displayed an IC50 of 1 nM.
In turn, `N#Cc1cnn2cc(-c3ccc(N4C[C@@H](O)[C@@H](O)C4)nc3)cc(Sc3ncccc3F)c12` [Example 661, 6-(6-((3R,4S)-3,4-dihydroxypyrrolidin-1-yl)pyridin-3-yl)-4-((3-fluoropyridin-2-yl)thio)pyrazolo[1,5-a]pyridine-3-carbonitrile] showed an IC50 of 2 nM.
Still for that read-out and setting: with `Cc1c(-c2cc(Sc3ncc(F)cc3F)c3c(C#N)cnn3c2)cnn1[C@H]1CCCNC1` [Example 345, (S)-4-((3,5-difluoropyridin-2-yl)thio)-6-(5-methyl-1-(piperidin-3-yl)-1H-pyrazol-4-yl)pyrazolo[1,5-a]pyridine-3-carbonitrile] the figure was 4 nM.
`Cc1c(-c2cc(Sc3ccc(F)cn3)c3c(C#N)cnn3c2)cnn1C1CCN(C(=O)[C@H](C)O)CC1` [Example 341, (S)-4-((5-fluoropyridin-2-yl)thio)-6-(1-(1-(2-hydroxypropanoyl)piperidin-4-yl)-5-methyl-1H-pyrazol-4-yl)pyrazolo[1,5-a]pyridine-3-carbonitrile]: the IC50 was found to be 9 nM.
